Values of other authors as cited in US11737976B2, “Drug delivery means” (priority 2006, dated 2023).
Read-outs that look alike come from different tables or passages of the source. Each block holds one compound with its values, some of them ahead of it.

Key:
[1] = test system: endothelial and smooth muscle cells
[2] = test system: oxidized cholesterols present in the plasma; details: increased concentrations of vitamin E in the blood; some oxidized cholesterols, not all; not reversed once packed into plaques
[3] = test system: arterial smooth muscle cell

Compound: CC(C)CCC[C@@H](C)[C@H]1CC[C@H]2[C@@H]3C(=O)C=C4C[C@@H](O)CC[C@]4(C)[C@H]3CC[C@]12C [7-Keto, 5-Cholesten-3β-ol-7-one]
- cytotoxicity relative to the other oxidized cholesterols studied (cells): most cytotoxic
- induction of apoptosis [1]: able to induce apoptosis
- apoptosis in fibroblasts (fibroblasts): did not cause apoptosis

Compound: vitamin E
- lowering the amount of oxidized cholesterols in plasma [2]: effective in lowering the amount of some oxidized cholesterols

- changes in the arterial smooth muscle cell [3]: causes changes
Compound: C[C@H](CCCC(C)(C)O)[C@H]1CC[C@H]2[C@@H]3CC=C4C[C@@H](O)CC[C@]4(C)[C@H]3CC[C@]12C [25OH, 25-hydroxycholesterol]

Compound: CC(C)CCC[C@@H](C)[C@H]1CC[C@H]2[C@@H]3[C@@H](O)C=C4C[C@@H](O)CC[C@]4(C)[C@H]3CC[C@]12C [7B, 7β-hydroxycholesterol]
- induction of apoptosis ([1]; cells of the vascular wall): able to induce apoptosis
- apoptosis in fibroblasts (fibroblasts; necrosis occurred instead): did not cause apoptosis
